Data from patent US12715867B2, “Agonists of free fatty acid receptor 1 and their use in diseases associated with said receptor” (HALO Therapeutics Ltd, priority 2020, dated 2026).

System: C57Bl/6N male mice
Test: OGTT testing in C57Bl/6N male mice (oral glucose tolerance test)
Type: in vivo
Details: single per os dose 60 min before glucose 2 g/kg; Z1558775684 20 mg/kg, Metformin 300 mg/kg; compared with Vehicle-treated group; 5 mice per group
Protocol: Values are expressed as means of 5 animals tested. For glucose tolerance test (GTT), mice were orally treated with glucose at dose of 2 g/kg at the dose volume of 10 ml/kg after a 6-hour fasting. Glucose measurements were performed immediately before compound treatment (−60 min), at −30 min, 0 min (before glucose administration), and then 15, 30, 60, 90 and 120 min after glucose administration.
Example 87: OGTT Testing in C57Bl/6N Male Mice
Each experimental group consisted of five male C57Bl/6N mice. Animals were dosed once perorally with 20 mg/kg of tested compound Z1558775684. A control group was dosed with vehicle on the same schedule. Metformin at the dosage of 300 mg/kg was used as reference compound.
Compound Z1558775684 was dissolved/suspended in DMSO—PEG400—physiological saline (20%:50%:30%) at concentration 4 mg/ml. Metformin was dissolved in the same vehicle at concentration 60 mg/ml. The test samples were administered per os in the volume corresponding to 5 ml/kg body weight.
Single doses of test samples were administered 60 min before glucose treatment at 3 p.m.
The blood glucose level was measured after 6-hour fasting using Call Plus glucometer and specific test strips. Blood was obtained from the tail vein by incision of the tail tip, 5-6 μl of blood was used for each assay. […]

| Compound | glucose level during oral glucose tolerance test (OGTT) |
| --- | --- |
| CCc1nc(N)nc(SCc2ncc(-c3cccc(Cl)c3)o2)n1 [Compound Z1558775684, 4-(((5-(3-chlorophenyl)oxazol-2-yl)methyl)thio)-6-ethyl-1,3,5-triazin-2-amine] | Statistically significant decrease in glucose level |
| CN(C)C(=N)N=C(N)N [Metformin] | Statistically significant decrease in glucose level |
